Assay results reported in publication PMC11050823, “The Cyclic Imine Core Common to the Marine Macrocyclic Toxins Is Sufficient to Dictate Nicotinic Acetylcholine Receptor Antagonism” (Marine Drugs, 2024).
“Also recorded” adds a separate entry of the source. Where two headings read alike, the source gives them in different places. Marks after values point to notes of the source that are not given here.

What was measured:
[1] = molecular target: Torpedo muscle-type α1_2βγδ nAChR (Torpedo marmorata, UniProt P02711+Q6S3H8+Q6S3H9); assay: Manual TEVC recording of ACh-evoked currents in Xenopus oocytes micro-transplanted with Torpedo electrocyte membranes; assay type: cell-based; settings: for Hill Slope: concentration-inhibition curve, ACh 25 µM
Text: (§1) Functional analysis of the (±)-4 racemate and (+)-4 R and (−)-4 S enantiomers used either manual or automated two-electrode voltage-clamp (TEVC) recordings on Xenopus laevis oocytes at −60 mV holding membrane potential. The oocytes were either micro-transplanted with Torpedo α1_2βγδ-enriched electrocyte membranes or transfected with human α7 or α4β2-encoding cDNAs. When applied alone (see Experimental Procedures), none of the three spiroimines induced nAChR channel opening, thereby discarding any agonistic activity toward these nAChR subtypes. Instead, when applied together with ACh at its EC50 concentration for each nAChR subtype, all three spiroimines clearly behaved as nicotinic antagonists, whose potency depended on the receptor subtype examined (Figure 2; Table 1).
(§2) The sources for live animals and biological materials, the procedures for nAChR microtransplantation and expression in oocytes, and the procedures for manual (α1_2βγδ nAChR) and automated (α7 and α4β2 nAChRs) TEVC recording are detailed in Appendix C. […] Then, the oocyte was perfused for 45 s with the tested spiroimine at a given concentration, immediately followed by the co-application of ACh and the spiroimine at the same concentrations and times as indicated above. The oocyte was washed with Ringer’s solution, and then recovery of the ACh-evoked current was recorded.
(§3) The concentration–inhibition curves were analyzed as previously detailed using the equation I = Imax [L]^nH/(EC50^nH + [L]^nH) (Equation (1)), where I is the measured agonist-evoked current, [L] is the agonist concentration, EC50 is the agonist concentration that evoked half the maximal current (I^max), and nH is the Hill coefficient. For antagonist inhibition, current (I) values were normalized to the I^max value recorded from the same oocyte to yield the fractional (%) response data. IC50 values were established from the concentration–response curves by fitting to the equation F = 1/[1 + ([X]/IC50)^nH] (Equation (2)), where F is the fractional response obtained in the presence of the inhibitor at concentration [X], and IC50 is the inhibitor concentration reducing the ACh-evoked amplitude by half. Data analysis was performed without constraints as Log[spiroimine] versus response (three parameters), with a Hill slope ~1. Statistical significance of differences between the control and test values was assessed using either the two-tailed Student’s “t” test or the Kolmogorov–Smirnov two-sample test and p < 0.05.
(§4) Torpedo membranes containing α1_2βγδ nAChR were microtransplanted into the oocyte cytoplasm by microinjecting a membrane suspension (50 nL at 2.5 µg/µL, i.e., 125 ng total protein, in 5 mM glycine) with an electronic micro-injector (Nanoliter2000 Micro4 Controller, World Precision Instruments Inc., Hertfordshire, UK) mounted on a microscope. Human α7 and α4β2 nAChRs were expressed through microinjection, into the oocyte nucleus, of α7 mRNA and of a 1:1 (w/w) mixture of α4 and β2 cDNAs (a ratio favoring expression of the α4_3β2_2 population over the α4_2β2_3 population) (50 nL at 1 µg/µL) in a pRc/CMV expression vector (Invitrogen). Oocytes were maintained at 18 °C and TEVC recordings were performed 1–4 days later in a room with controlled temperature (20 °C).
(§5) Manual TEVC on α1_2βγδ nAChR oocytes was carried out using an OC-725B amplifier (Warner Instrument Corp., Hamden, CT, USA). Voltage and current borosilicate glass microelectrodes were filled with KCl 3 M and had 0.5–1.5 MΩ tip resistances. For data acquisition and recording, a pCLAMP-9/Digidata-1322A system (Molecular Devices, San Jose, CA, USA) was used. The oocyte recording chamber of 300 μL was superfused at a high rate (8–12 mL.min^−1) with a modified oocyte Ringer’s solution made of HEPES 5 mM pH 7.4, NaCl 100 mM, KCl 2.8 mM, and BaCl2 0.3 mM, where BaCl2 substitution to the original CaCl2 prevents secondary activation of a Ca^2+-dependent Cl^− current. […]

[2] = test system: Torpedo muscle-type α1_2βγδ nAChR; assay: as above; assay type: cell-based, Torpedo marmorata; settings: from IC50 values
Text: as §1, §2, §3, §4, §5

human neuronal α7 nAChR = molecular target: T1, human neuronal α7 nAChR (Homo sapiens, UniProt P36544); assay: Automated TEVC recording of ACh-evoked currents in Xenopus oocytes expressing human α7 nAChR; assay type: cell-based; settings: for Hill Slope: concentration-inhibition curve, ACh 100 µM; for Hill Slope / IC50: 95% confidence interval in parentheses; for IC50: inhibition of ACh-evoked current, ACh 100 µM (EC50), −60 mV
T1 construct: expressed in transfected cells; host or cells: Xenopus laevis oocytes
Text: as §1, §2, §3, §4
(§6) Automated TEVC on α7 and α4β2 nAChR oocytes was performed using a HiClamp system (Multi Channel Systems, GmbH., Reutlingen, Germany). Oocytes free of follicular cells were transferred from the 96-wells of the oocyte microplate to a recording basket carrying the reference bath electrode. Oocytes were automatically impaled and clamped at a holding potential of −60 mV using borosilicate glass microelectrodes of 0.5–5 MΩ tip resistances, filled with a 1:1 (v/v) mixture of KCl 1 M and KAc 1 M. The clamped oocytes were exposed twice or thrice to ACh by incubation into a well containing ACh (at the EC50 for the assayed nAChR subtype) to obtain a control IACh peak amplitude. […]

[3] = molecular target: T2, human neuronal α4β2 nAChR (Homo sapiens, UniProt P17787+P43681); assay: Automated TEVC recording of ACh-evoked currents in Xenopus oocytes expressing human α4β2 nAChR; assay type: cell-based; settings: for recovery of the ACh-evoked current after washout of bound spiroimine: 10 µM spiroimine, wash; for Hill Slope: concentration-inhibition curve, ACh 150 µM; for Hill Slope / IC50: 95% confidence interval in parentheses; for IC50: inhibition of ACh-evoked current, ACh 150 µM (EC50), −60 mV
T2 construct: expressed in transfected cells; host or cells: Xenopus laevis oocytes; cDNAs in pRc/CMV vector
Text: as §1, §2, §3, §4, §6

L-AChBP [4] = molecular target: T3, L-AChBP (Lymnaea stagnalis, UniProt P58154); assay: Stopped-flow Trp fluorescence kinetic and equilibrium binding to purified L-AChBP; settings: for Kd / kon / koff: L-AChBP
T3 construct: made in house; host or cells: stably transfected HEK293S-GnTI- cells
Method: (§7) Equilibrium dissociation constants were determined either from ratios (Kd/(koff/kon)) of rate constants determined using multiple kinetic means (kon, koff, koff/GAL) or directly from stopped-flow measurements (Kd/SFeq, Kd/SPAeq) (see Experimental Procedures).
(§8) The procedures for stable expression and purification of A- and L-AChBPs are described in Appendix D. Rate constants for association (kon) and dissociation (koff) were determined by multiple kinetic means, largely as previously described. Measurement of kon and koff values entailed the direct admixture of reactants and monitoring the quenching of AChBP native Trp fluorescence. Individual rate constants were determined from linear regression of the experimental mono-exponential decay of Trp fluorescence intensity (kobs) using the linear “approach-to-equilibrium” relationship kobs = kon[spiroimine] + koff (Equation (3)). Additional measurements of koff (koff/GAL) employed stopped-flow measurement of the rate of occupation of free AChBP binding sites by a competing ligand (gallamine, used in large excess relative to its Kd) to form a non-quenching gallamine-AChBP complex. Equilibrium dissociation constants were determined either from the ratios of rate constants (Kd/(koff/kon)), or from stopped-flow measurements of the rates of gallamine or epibatidine binding to pre-equilibrated spiroimine-AChBP complexes formed using increasing spiroimine concentrations (Kd/SFeq), or by the scintillation proximity assay (SPA) where spiroimine competition against the binding of [^3H]epibatidine (to L-AChBP) or [^3H]methyllycaconitine (to A-AChBP) was monitored at equilibrium (Kd/SPAeq). […] The time course of [^3H]ligand binding was monitored over several hours.
(§9) A- and L-AChBP, flanked with an N-terminal FLAG epitope with residues numbered (-8)[…](0), were expressed as soluble, exported proteins using synthetic cDNA and stably-transfected HEK293S-GnTI^− cells selected for G418 resistance, and cultured in Dulbecco’s modified Eagle’s medium (MediaTech CellGro, Albany, NY, USA) containing fetal bovine serum (FBS) 2% (v/v). The conditioned medium was collected every 1–3 days for up to 4 weeks, supplemented with NaN3 0.02% (w/v) and stored at 4 °C. AChBPs were purified on immobilized anti-FLAG M2 antibody (Sigma-Aldrich) with elution using FLAG peptide 100 μg/mL in TRIS-HCl 50 mM pH 7.4, NaCl 150 mM, NaN3 0.02% (w/v). Purified proteins were dialyzed against the same buffer, concentrated by ultrafiltration, filtered on a 0.22 µm membrane, and stored on ice at 4 °C.

L-AChBP [5] = molecular target: T3, L-AChBP; assay: Scintillation proximity assay, competition against [3H]epibatidine binding to L-AChBP
Method: as §7, §8
(§10) A- and L-AChBP, flanked with an N-terminal FLAG epitope with residues numbered (-8)[…](0), were expressed as soluble, exported proteins using synthetic cDNA and stably-transfected HEK293S-GnTI^− cells selected for G418 resistance, and cultured in Dulbecco’s modified Eagle’s medium (MediaTech CellGro, Albany, NY, USA) containing fetal bovine serum (FBS) 2% (v/v). […]

A-AChBP [6] = molecular target: T4, A-AChBP (Aplysia californica, UniProt Q8WSF8); assay: Stopped-flow Trp fluorescence kinetic and equilibrium binding to purified A-AChBP; settings: for kon / koff / Kd: A-AChBP
Method: as §7, §8, §9
Target sequence in this assay (Q8WSF8 entry or part of it): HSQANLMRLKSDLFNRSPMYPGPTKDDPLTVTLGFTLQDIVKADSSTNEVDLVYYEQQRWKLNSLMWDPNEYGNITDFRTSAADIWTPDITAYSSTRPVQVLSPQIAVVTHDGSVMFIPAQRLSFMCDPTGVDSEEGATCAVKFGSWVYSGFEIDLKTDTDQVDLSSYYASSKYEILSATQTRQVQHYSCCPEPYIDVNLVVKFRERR

A-AChBP [7] = molecular target: T4, A-AChBP; assay: Scintillation proximity assay, competition against [3H]methyllycaconitine binding to A-AChBP; set-up: made in house; host or cells: stably transfected HEK293S-GnTI- cells
Method: as §7, §8, §10
Target sequence in this assay (Q8WSF8 entry or part of it): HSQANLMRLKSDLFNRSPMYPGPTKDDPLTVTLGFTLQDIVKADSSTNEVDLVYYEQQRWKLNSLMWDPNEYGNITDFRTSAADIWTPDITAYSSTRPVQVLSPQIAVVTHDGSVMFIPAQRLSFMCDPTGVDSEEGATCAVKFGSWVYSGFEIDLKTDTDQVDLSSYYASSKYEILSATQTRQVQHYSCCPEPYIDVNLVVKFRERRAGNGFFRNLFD

[8] = molecular target: nicotinic acetylcholine receptors; set-up: method as in PMID 35049904; settings: cited from earlier work
[9] = stopped-flow on pre-equilibrated complexes, single experiment in triplicate, read-out: Kd/SFeq
[10] = read-out: Kd values (range of magnitude)
[11] = quenching of native Trp fluorescence
[12] = quenching of native Trp fluorescence, read-out: koff (converted)
[13] = stopped-flow with competing gallamine in large excess, read-out: koff/GAL (converted)
[14] = Kd/(koff/kon), calculated from the rate constants
[15] = Kd/SFeq, stopped-flow on pre-equilibrated complexes, single experiment in triplicate
[16] = calculated from the rate constants, read-out: Kd/(koff/kon)

Chain of Torpedo muscle-type α1_2βγδ nAChR (Torpedo marmorata, UniProt P02711+Q6S3H8+Q6S3H9) (P02711 25-461): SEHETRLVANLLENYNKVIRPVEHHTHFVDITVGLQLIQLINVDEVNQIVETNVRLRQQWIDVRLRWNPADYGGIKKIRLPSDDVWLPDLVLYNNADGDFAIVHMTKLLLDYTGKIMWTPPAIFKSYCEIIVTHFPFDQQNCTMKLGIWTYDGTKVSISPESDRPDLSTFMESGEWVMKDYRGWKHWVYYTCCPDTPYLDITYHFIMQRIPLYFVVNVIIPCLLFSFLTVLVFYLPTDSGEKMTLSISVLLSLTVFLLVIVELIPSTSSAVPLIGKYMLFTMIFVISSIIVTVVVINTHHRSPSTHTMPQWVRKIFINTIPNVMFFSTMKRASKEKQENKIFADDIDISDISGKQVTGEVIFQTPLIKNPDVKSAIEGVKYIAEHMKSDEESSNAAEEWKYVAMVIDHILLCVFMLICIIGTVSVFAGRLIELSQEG
Chain of Torpedo muscle-type α1_2βγδ nAChR (Torpedo marmorata, UniProt P02711+Q6S3H8+Q6S3H9) (Q6S3H9 18-505): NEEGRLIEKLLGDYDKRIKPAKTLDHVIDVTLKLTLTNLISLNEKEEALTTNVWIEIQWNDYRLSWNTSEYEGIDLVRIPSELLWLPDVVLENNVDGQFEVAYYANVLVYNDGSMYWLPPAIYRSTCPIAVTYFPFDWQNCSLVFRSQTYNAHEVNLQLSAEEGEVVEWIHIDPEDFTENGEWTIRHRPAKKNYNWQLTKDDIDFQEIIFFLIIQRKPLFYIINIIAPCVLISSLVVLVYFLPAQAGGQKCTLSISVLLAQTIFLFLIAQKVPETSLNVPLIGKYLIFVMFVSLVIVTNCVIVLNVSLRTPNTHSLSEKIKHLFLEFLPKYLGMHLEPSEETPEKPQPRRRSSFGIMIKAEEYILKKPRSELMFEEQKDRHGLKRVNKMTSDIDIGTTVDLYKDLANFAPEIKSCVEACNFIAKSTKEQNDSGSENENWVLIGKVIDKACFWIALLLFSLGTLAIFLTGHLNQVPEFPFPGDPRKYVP
Chain of Torpedo muscle-type α1_2βγδ nAChR (Torpedo marmorata, UniProt P02711+Q6S3H8+Q6S3H9) (Q6S3H8 22-522): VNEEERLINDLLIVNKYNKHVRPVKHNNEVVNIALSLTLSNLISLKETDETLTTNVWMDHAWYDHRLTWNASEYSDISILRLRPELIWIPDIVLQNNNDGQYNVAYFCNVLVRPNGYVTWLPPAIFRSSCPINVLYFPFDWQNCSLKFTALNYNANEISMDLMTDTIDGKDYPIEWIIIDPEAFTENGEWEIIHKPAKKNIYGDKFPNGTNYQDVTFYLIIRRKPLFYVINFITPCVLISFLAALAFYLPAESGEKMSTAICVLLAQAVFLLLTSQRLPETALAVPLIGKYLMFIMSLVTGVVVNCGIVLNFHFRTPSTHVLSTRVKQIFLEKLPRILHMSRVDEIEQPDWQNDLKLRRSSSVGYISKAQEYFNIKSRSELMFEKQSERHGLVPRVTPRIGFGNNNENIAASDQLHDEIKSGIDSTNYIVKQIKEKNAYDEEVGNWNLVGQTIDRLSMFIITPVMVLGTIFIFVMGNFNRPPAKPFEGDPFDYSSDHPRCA
Chain of Torpedo muscle-type α1_2βγδ nAChR (Torpedo marmorata, UniProt P02711+Q6S3H8+Q6S3H9) (Q6S3I0 25-493 partner): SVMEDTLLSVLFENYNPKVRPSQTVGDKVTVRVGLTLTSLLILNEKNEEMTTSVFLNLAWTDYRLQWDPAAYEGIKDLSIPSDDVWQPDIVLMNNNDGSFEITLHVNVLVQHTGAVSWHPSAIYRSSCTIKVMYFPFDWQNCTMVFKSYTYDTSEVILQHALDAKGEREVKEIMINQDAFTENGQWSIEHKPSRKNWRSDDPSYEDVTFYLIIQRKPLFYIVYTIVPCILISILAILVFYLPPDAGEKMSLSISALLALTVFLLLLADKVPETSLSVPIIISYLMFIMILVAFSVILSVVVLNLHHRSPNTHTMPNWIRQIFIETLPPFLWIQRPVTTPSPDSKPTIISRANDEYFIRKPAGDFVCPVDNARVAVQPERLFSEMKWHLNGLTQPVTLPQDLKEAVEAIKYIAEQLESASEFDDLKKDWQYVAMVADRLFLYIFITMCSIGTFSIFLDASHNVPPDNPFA
T1 sequence (P36544 23-502): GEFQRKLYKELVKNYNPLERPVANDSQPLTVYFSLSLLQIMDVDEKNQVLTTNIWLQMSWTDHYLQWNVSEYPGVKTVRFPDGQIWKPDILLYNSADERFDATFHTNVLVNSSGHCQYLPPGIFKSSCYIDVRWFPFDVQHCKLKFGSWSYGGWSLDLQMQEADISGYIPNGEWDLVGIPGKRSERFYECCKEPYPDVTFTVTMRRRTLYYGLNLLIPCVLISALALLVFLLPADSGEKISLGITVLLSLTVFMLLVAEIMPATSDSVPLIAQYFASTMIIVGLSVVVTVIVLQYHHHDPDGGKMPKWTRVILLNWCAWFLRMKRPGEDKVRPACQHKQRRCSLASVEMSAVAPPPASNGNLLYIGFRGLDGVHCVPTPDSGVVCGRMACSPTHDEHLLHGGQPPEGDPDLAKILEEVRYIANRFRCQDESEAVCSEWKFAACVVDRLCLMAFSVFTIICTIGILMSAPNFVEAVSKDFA
T3 sequence (P58154 20-229): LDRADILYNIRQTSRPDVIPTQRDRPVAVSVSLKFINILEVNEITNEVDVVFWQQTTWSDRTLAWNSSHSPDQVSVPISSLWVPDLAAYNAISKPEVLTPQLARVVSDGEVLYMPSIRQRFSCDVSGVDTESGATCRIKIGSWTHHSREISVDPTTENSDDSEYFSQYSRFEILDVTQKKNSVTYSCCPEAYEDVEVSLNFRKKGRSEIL
T2 sequence (P43681 29-627 limits assumed): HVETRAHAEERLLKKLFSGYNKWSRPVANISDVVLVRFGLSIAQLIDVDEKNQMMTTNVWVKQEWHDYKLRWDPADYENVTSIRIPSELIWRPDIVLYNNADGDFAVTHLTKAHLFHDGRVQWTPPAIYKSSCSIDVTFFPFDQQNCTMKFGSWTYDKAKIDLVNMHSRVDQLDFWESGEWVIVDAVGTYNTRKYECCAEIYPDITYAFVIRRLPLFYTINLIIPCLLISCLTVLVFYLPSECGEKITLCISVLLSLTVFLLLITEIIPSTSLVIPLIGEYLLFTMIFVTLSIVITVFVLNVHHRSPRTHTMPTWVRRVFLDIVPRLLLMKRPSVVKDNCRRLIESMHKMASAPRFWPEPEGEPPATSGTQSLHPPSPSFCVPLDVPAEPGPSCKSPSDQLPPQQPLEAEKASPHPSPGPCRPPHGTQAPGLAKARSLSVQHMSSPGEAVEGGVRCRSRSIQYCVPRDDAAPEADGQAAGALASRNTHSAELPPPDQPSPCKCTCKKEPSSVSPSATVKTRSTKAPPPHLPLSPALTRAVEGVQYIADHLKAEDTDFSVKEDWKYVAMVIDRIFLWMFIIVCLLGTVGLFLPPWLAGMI
T2 sequence (P17787 26-502): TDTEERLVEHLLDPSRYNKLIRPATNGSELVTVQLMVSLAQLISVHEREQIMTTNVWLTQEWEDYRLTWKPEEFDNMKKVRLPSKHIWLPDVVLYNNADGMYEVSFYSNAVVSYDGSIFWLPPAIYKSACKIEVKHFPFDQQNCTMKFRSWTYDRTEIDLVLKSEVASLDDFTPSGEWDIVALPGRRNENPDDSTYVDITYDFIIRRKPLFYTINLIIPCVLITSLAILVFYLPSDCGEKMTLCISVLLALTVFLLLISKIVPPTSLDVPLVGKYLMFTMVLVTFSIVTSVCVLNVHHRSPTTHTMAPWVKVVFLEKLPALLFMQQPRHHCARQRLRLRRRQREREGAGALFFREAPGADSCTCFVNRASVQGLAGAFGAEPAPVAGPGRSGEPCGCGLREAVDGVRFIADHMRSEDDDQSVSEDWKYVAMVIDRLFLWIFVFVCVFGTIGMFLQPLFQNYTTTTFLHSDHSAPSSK

| SMILES | Hill Slope [1] | Hill Slope (human neuronal α7 nAChR) | IC50 (human neuronal α7 nAChR) [µM] | recovery of the ACh-evoked current after washout of bound spiroimine [3] | Hill Slope [3] | IC50 [3] [µM] | Kd (L-AChBP [4]; [9]) [µM] | Kd (L-AChBP [4]; [10]) [µM] | Kd (L-AChBP [5]) [µM] | kon (A-AChBP [6]; [11]) [M⁻¹ s⁻¹] | koff (A-AChBP [6]; [12]) [s⁻¹] | koff (A-AChBP [6]; [13]) [s⁻¹] | Kd (A-AChBP [6]; [14]) [µM] | Kd (A-AChBP [6]; [15]) [µM] | Kd (A-AChBP [7]) [µM] | Kd (L-AChBP [4]; [16]) [µM] | kon (L-AChBP [4]; [11]) [M⁻¹ s⁻¹] | koff (L-AChBP [4]; [12]) [s⁻¹] | koff (L-AChBP [4]; [13]) [s⁻¹] | also measured |
| --- | --- | --- | --- | --- | --- | --- | --- | --- | --- | --- | --- | --- | --- | --- | --- | --- | --- | --- | --- | --- |
| CC1=NCCC[C@]12CCCCC21OCCO1 [Spiroimine (+)-4 R, 7-methyl-1,4-dioxa-8-azadispiro[4.0.5.4]pentadec-7-ene] | ~1 ^b | 0.78 (0.54–1.01) ^b | 4.88 | fast and complete | 0.83 (0.15–1.52) ^b | 9.31 | 12 | ~10 | 12 ± 3 | 1.23e+08 | 267 | 233 | 2.2 | 3.1 | 2.3 ± 0.4 |  |  |  |  | selectivity for the α1_2βγδ nAChR compared with the α4β2 subtype [2]: 25 fold; selectivity for the α1_2βγδ nAChR compared with the α7 subtype [2]: 13 fold; higher affinity compared with the (−)-4 S enantiomer (human neuronal α7 nAChR; α7 nAChR, from Table 1): ca. 5 fold; agonistic activity (nAChR channel opening) ([3]; spiroimine applied alone): elicited no inward current per se; higher affinity compared with the (−)-4 S enantiomer ([3]; α4β2 nAChR, from Table 1): ca. 5 fold; higher affinity compared to enantiomer (−)-4 S (L-AChBP [4]; L-AChBP (text: the two AChBPs)): ca. 2 fold; higher affinity compared to enantiomer (−)-4 S (A-AChBP [6]; A-AChBP (text: the two AChBPs)): ca. 2 fold |
| CC1=NCCCC12CCCCC21OCCO1 (racemic) [Racemic (±)-4, 7-methyl-1,4-dioxa-8-azadispiro[4.0.5.4]pentadec-7-ene] | ~1 ^b | 0.61 (0.47–0.75) ^b | 2.11 | fast reversibility; also recorded: fast and complete | 1.08 (0.86–1.29) ^b | 6.96 | 0.32 |  | 2.6 ± 1.9 | 1.05e+08 | 300 | 250 | 2.9 | 4.2 | 2.4 ± 1.5 | 1.7 | 6e+07 | 103 | 112 | recovery of the ACh-evoked current after washout of bound spiroimine ([1]; 10 µM spiroimine, washout with ACh, desensitized state): full recovery of the nicotinic current; Kd (L-AChBP [4]; stopped-flow on pre-equilibrated complexes, biphasic curve, read-out: Kd/SFeq, second constant from a biphasic curve): 15 µM |
| CC1=NCCC[C@@]12CCCCC21OCCO1 [Spiroimine (−)-4 S, 7-methyl-1,4-dioxa-8-azadispiro[4.0.5.4]pentadec-7-ene] | ~1 ^b | 0.58 (0.44–0.72) ^b | 1.45 |  | 0.53 (0.32–0.74) ^b | 1.41 | 0.32 | ~0.1 | 3.4 | 1.02e+08 | 433 | 400 | 4.3 | 5.4 | 2.4 ± 0.5 | 0.41 | 1.3e+08 | 53.3 | 103 | recovery of the ACh-evoked current after washout of bound spiroimine (human neuronal α7 nAChR; 10 µM spiroimine, wash with Ringer's solution): fast and complete |
| CN(C)C1CSSC1 [nereistoxin, N,N-dimethyl-1,2-dithiolan-4-amine] |  |  |  |  |  |  |  |  |  |  |  |  |  |  |  |  |  |  |  | IC50 values as nicotinic antagonist [8]: sub-millimolar |
